In ChEMBL document CHEMBL1201862, “PubChem BioAssay data set” (2004):
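Tested at 5 concentrations; 48 h exposure; 96-well plates; endpoints linearly interpolated, else capped at highest concentration. GI50 is the concentration that inhibits growth by half.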 Activity calls are given as the source filed them. No stated cut-off is given here; in the data, active = GI50 up to about 1.1 µM and inactive = higher.

Experiments:
Experiment in all cases: inhibition of tumour cell growth, NCI panel, 48 h
LOX IMVI = test system: LOX IMVI
HCT-116 = test system: HCT-116
SK-MEL-2 = test system: SK-MEL-2
UACC-257 = test system: UACC-257
HOP-62 = test system: HOP-62
CCRF-CEM = test system: CCRF-CEM
M14 = test system: M14
MDA-N = test system: MDA-N
A498 = test system: A498
K562 = test system: K562
MDA-MB-435 = test system: MDA-MB-435
HOP-92 = test system: HOP-92
Hs-578T = test system: Hs-578T
OVCAR-8 = test system: OVCAR-8
OVCAR-3 = test system: OVCAR-3
SW-620 = test system: SW-620
HCT-15 = test system: HCT-15
NCI/ADR-RES = test system: NCI/ADR-RES
SN12C = test system: SN12C
HT-29 = test system: HT-29

| SMILES | GI50 (LOX IMVI) | GI50 (HCT-116) | GI50 (SK-MEL-2) | GI50 (UACC-257) | GI50 (HOP-62) | GI50 (CCRF-CEM) | GI50 (M14) | GI50 (MDA-N) | GI50 (A498) | GI50 (K562) | GI50 (MDA-MB-435) | GI50 (HOP-92) | GI50 (Hs-578T) | GI50 (OVCAR-8) | GI50 (OVCAR-3) | GI50 (SW-620) | GI50 (HCT-15) | GI50 (NCI/ADR-RES) | GI50 (SN12C) | GI50 (HT-29) |
| --- | --- | --- | --- | --- | --- | --- | --- | --- | --- | --- | --- | --- | --- | --- | --- | --- | --- | --- | --- | --- |
| O=c1c2ccccc2oc2nc3n(c(=O)c12)CCCS3 | > 100 µM (inactive) | > 100 µM (inactive) | > 100 µM (inactive) | > 100 µM (inactive) | > 100 µM (inactive) | > 100 µM (inactive) | > 100 µM (inactive) | > 100 µM (inactive) | > 100 µM (inactive) | > 100 µM (inactive) | > 100 µM (inactive) | > 100 µM (inactive) | > 100 µM (inactive) | > 100 µM (inactive) | > 100 µM (inactive) | > 100 µM (inactive) | > 100 µM | > 100 µM (inactive) | > 100 µM (inactive) | – |
| COc1ccc2nc(-c3ccccc3)cc(OCC(=O)O)c2c1 | > 100 µM (inactive) | > 100 µM (inactive) | > 100 µM (inactive) | > 100 µM (inactive) | > 100 µM (inactive) | > 100 µM (inactive) | > 100 µM (inactive) | > 100 µM (inactive) | > 100 µM (inactive) | > 100 µM (inactive) | > 100 µM (inactive) | > 100 µM (inactive) | > 100 µM (inactive) | > 100 µM (inactive) | > 100 µM (inactive) | > 100 µM (inactive) | > 100 µM | > 100 µM (inactive) | > 100 µM (inactive) | > 100 µM (inactive) |
| CCOC(=O)c1c[nH]c2cc3c(cc2c1=O)CCS3 | > 100 µM (inactive) | 37.9 µM (inactive) | > 100 µM (inactive) | > 100 µM (inactive) | > 100 µM (inactive) | > 100 µM (inactive) | > 100 µM (inactive) | > 100 µM (inactive) | > 100 µM (inactive) | > 100 µM (inactive) | > 100 µM (inactive) | > 100 µM (inactive) | > 100 µM (inactive) | > 100 µM (inactive) | > 100 µM (inactive) | > 100 µM (inactive) | > 100 µM | > 100 µM (inactive) | > 100 µM (inactive) | 61.2 µM (inactive) |
| COc1ccc2nc3ccccc3c(NCCCN(C)CCCl)c2c1 | 0.138 µM (active) | 0.0877 µM (active) | 0.557 µM (active) | 0.644 µM (active) | 0.959 µM (active) | 0.064 µM (active) | 0.453 µM (active) | 0.311 µM (active) | 0.458 µM (active) | 0.136 µM (active) | 0.298 µM (active) | 0.185 µM (active) | 0.188 µM (active) | 0.142 µM (active) | 0.682 µM (active) | 0.0497 µM (active) | 0.444 µM | 0.313 µM (active) | 0.16 µM (active) | 0.0998 µM (active) |
| O=C1C[C@@H](Sc2ccccc2)C2(OCCO2)C2ON3CCCC[C@H]3[C@H]12 (some centres undefined) | 2.49 µM (inactive) | 4.33 µM (inactive) | 18.1 µM (inactive) | 14.2 µM (inactive) | 16.5 µM (inactive) | 0.92 µM (active) | 10.7 µM (inactive) | 13.2 µM (inactive) | 30.5 µM (inactive) | 2.11 µM (inactive) | 11.7 µM (inactive) | 7 µM (inactive) | 10.8 µM (inactive) | 3.87 µM (inactive) | 13 µM (inactive) | 3.63 µM (inactive) | 2.81 µM | 5.78 µM (inactive) | 3.82 µM (inactive) | 4.75 µM (inactive) |
| COC(=O)NC(Cc1ccccc1)NC(C)=O (centres undefined) | > 100 µM (inactive) | > 100 µM (inactive) | > 100 µM (inactive) | > 100 µM (inactive) | > 100 µM (inactive) | > 100 µM (inactive) | > 100 µM (inactive) | > 100 µM (inactive) | > 100 µM (inactive) | > 100 µM (inactive) | > 100 µM (inactive) | > 100 µM (inactive) | 5.3 µM (inactive) | > 100 µM (inactive) | > 100 µM (inactive) | > 100 µM (inactive) | > 100 µM | > 100 µM (inactive) | > 100 µM (inactive) | > 100 µM (inactive) |
| C[C@@H]1O[C@@H]2OCC[C@@H]2C2=C1C(=O)c1ccccc1C2=O | 1.92 µM (inactive) | – | 11 µM (inactive) | 11.5 µM (inactive) | 17.3 µM (inactive) | 6.87 µM (inactive) | 3.98 µM (inactive) | 1.85 µM (inactive) | 18 µM (inactive) | 10.1 µM (inactive) | 1.94 µM (inactive) | 4.38 µM (inactive) | 28.1 µM (inactive) | 6.85 µM (inactive) | 3.08 µM (inactive) | 4.04 µM (inactive) | 15.6 µM | 2.02 µM (inactive) | 6.35 µM (inactive) | 40 µM (inactive) |
| CN(C)c1ccc(/C=N\NC(=O)c2ccccc2Nc2ccccc2C(=O)N/N=C/c2ccc(N(C)C)cc2)cc1 | 92.9 µM (inactive) | > 100 µM (inactive) | > 100 µM (inactive) | > 100 µM (inactive) | > 100 µM (inactive) | > 100 µM (inactive) | 31.7 µM (inactive) | > 100 µM (inactive) | > 100 µM (inactive) | > 100 µM (inactive) | > 100 µM (inactive) | > 100 µM (inactive) | > 100 µM (inactive) | > 100 µM (inactive) | > 100 µM (inactive) | > 100 µM (inactive) | > 100 µM | > 100 µM (inactive) | > 100 µM (inactive) | > 100 µM (inactive) |
| O=C1CCCCC1CN1CCCCC1 (centres undefined) | > 100 µM (inactive) | > 100 µM (inactive) | > 100 µM (inactive) | – | > 100 µM (inactive) | > 100 µM (inactive) | > 100 µM (inactive) | > 100 µM (inactive) | > 100 µM (inactive) | > 100 µM (inactive) | > 100 µM (inactive) | > 100 µM (inactive) | > 100 µM (inactive) | > 100 µM (inactive) | > 100 µM (inactive) | > 100 µM (inactive) | > 100 µM | > 100 µM (inactive) | > 100 µM (inactive) | > 100 µM (inactive) |
| CCCN(CCc1ccc(-c2ccccc2)cc1)CCc1ccc2nn[nH]c2c1 | 10.6 µM (inactive) | 4.66 µM (inactive) | 15.6 µM (inactive) | 4.84 µM (inactive) | 12.5 µM (inactive) | 4.26 µM (inactive) | 4.28 µM (inactive) | 6.07 µM (inactive) | 17.3 µM (inactive) | 2.94 µM (inactive) | 8.93 µM (inactive) | 5.37 µM (inactive) | 17.4 µM (inactive) | 13.7 µM (inactive) | 12.5 µM (inactive) | 10.7 µM (inactive) | 7.76 µM | 14.7 µM (inactive) | 13.6 µM (inactive) | 11.5 µM (inactive) |
| CC(=O)CC(O)(C(F)(F)Cl)C(F)(Cl)Cl (centres undefined) | > 10 µM (inactive) | > 10 µM (inactive) | > 10 µM (inactive) | > 10 µM (inactive) | > 10 µM (inactive) | > 10 µM (inactive) | > 10 µM (inactive) | > 10 µM (inactive) | > 10 µM (inactive) | > 10 µM (inactive) | > 10 µM (inactive) | > 10 µM (inactive) | > 10 µM (inactive) | > 10 µM (inactive) | > 10 µM (inactive) | > 10 µM (inactive) | > 10 µM | > 10 µM (inactive) | > 10 µM (inactive) | > 10 µM (inactive) |
| COc1ccc(CNc2ccn(C3OC(CO)C(O)C3O)c(=O)n2)cc1 (centres undefined) | > 100 µM (inactive) | 55.5 µM (inactive) | > 100 µM (inactive) | 49.8 µM (inactive) | > 100 µM (inactive) | 31.3 µM (inactive) | 50.5 µM (inactive) | 49.9 µM (inactive) | > 100 µM (inactive) | 34.8 µM (inactive) | 44.8 µM (inactive) | 47.1 µM (inactive) | > 100 µM (inactive) | > 100 µM (inactive) | > 100 µM (inactive) | > 100 µM (inactive) | > 100 µM | > 100 µM (inactive) | > 100 µM (inactive) | 46.3 µM (inactive) |
| C#CCOC(=O)c1ccc(OC(C)=O)cc1 | > 100 µM (inactive) | > 100 µM (inactive) | > 100 µM (inactive) | > 100 µM (inactive) | > 100 µM (inactive) | > 100 µM (inactive) | > 100 µM (inactive) | > 100 µM (inactive) | > 100 µM (inactive) | > 100 µM (inactive) | > 100 µM (inactive) | > 100 µM (inactive) | > 100 µM (inactive) | > 100 µM (inactive) | > 100 µM (inactive) | > 100 µM (inactive) | > 100 µM | > 100 µM (inactive) | > 100 µM (inactive) | – |
| COC(=O)C1CC23CCCN4CCC5(c6ccccc6N(C=O)C15CC2)C43 (centres undefined) | > 100 µM (inactive) | > 100 µM (inactive) | > 100 µM (inactive) | > 100 µM (inactive) | > 100 µM (inactive) | > 100 µM (inactive) | > 100 µM (inactive) | > 100 µM (inactive) | > 100 µM (inactive) | – | > 100 µM (inactive) | > 100 µM (inactive) | > 100 µM (inactive) | > 100 µM (inactive) | > 100 µM (inactive) | > 100 µM (inactive) | > 100 µM | > 100 µM (inactive) | > 100 µM (inactive) | > 100 µM (inactive) |
| Cc1c(/N=N/c2ccc(Cl)cc2)c(-c2ccccc2)n(C2OC(CO)C(O)C(O)C2O)c(=S)c1C#N (centres undefined) | 18.2 µM (inactive) | 14.3 µM (inactive) | 18.8 µM (inactive) | 22.1 µM (inactive) | 19.1 µM (inactive) | 10 µM (inactive) | 17.4 µM (inactive) | 18.2 µM (inactive) | 7.87 µM (inactive) | 13.6 µM (inactive) | 10.5 µM (inactive) | 14.2 µM (inactive) | 21.5 µM (inactive) | – | 18.5 µM (inactive) | 17.6 µM (inactive) | 17.1 µM | 13.6 µM (inactive) | 16.6 µM (inactive) | 16.6 µM (inactive) |
